No end group written: not given here.
Biological target: T1, human TNFα (Homo sapiens, UniProt P01375)
T1 construct: purchased Biosource, Camarillo, Calif
Assay: p55 receptor/IgG fusion protein binding assay (inhibition of TNFα capture by p55-Ig coated plate)
Conditions: TNFα 25 ng/ml preincubated with peptide, read-out: IC50 (concentration necessary to inhibit TNFα by 50%), inhibition of binding of TNFα to p55TNFr-IgG chimeric construct
Experimental: This assay was designed to identify peptides which bind to human TNFα and thereby prevent the capture of the TNFα by a microtiter plate coated with p55-Ig fusion protein. A constant concentration of human TNFα is preincubated with the test peptide and then incubated on the p55-Ig coated microtiter wells. Bound TNFα is detected using a specific antisera and an alkaline phosphatase-conjugated probe.
A 96-well, U-bottom polyvinylchloride microtiter plate was coated with 50 μl/well of p55-Ig fusion protein at 5 μg/ml in 0.01M sodium phosphate, 0.15M sodium chloride (PBS) by incubation overnight at 4° C. or 2 hours at 37° C. […] 29, 1993 which is incorporated herein by reference. The plate was washed three times with 0.05% Tween-20 in PBS, then blocked, by adding 150 μl/well of assay buffer (10 mM N-2-hydroxyethylpiperazine-N'-[…] (HEPES) pH 7.2, containing 0.1% porcine gelatin, 0.1% Tween-80, and 0.01% sodium azide) and continuing incubation for 1 hour at 37° C. or at 4° C. for 1-7 days.
Lyophilized peptides to be tested were weighed in tared 12×75 mm polystyrene tubes and reconstituted to a concentration of 1.2 mM with assay buffer. Each suspension was sonicated in a water bath for 1-5 minutes and vortexed 15-30 seconds to disperse large particles. Serial dilutions of each peptide suspension were prepared using assay buffer in a 96-well polystyrene microtiter plate. Additional wells received Fab fragment of the mouse/human monoclonal anti-human TNFα antibody cA2 (positive control) or assay buffer (negative control). […] The polystyrene dilution plate was then sealed and incubated 1 hour at room temperature on an orbital mixer set at moderate speed.
Following the sample preincubation, blocker was discarded from the p55-Ig coated plate and blotted dry. Aliquots (50 μl) of each peptide or control were transferred into duplicate wells on the p55-Ig coated plate which was then sealed and incubated 1 hour at 37° C. Duplicate wells containing only assay buffer were included as a plate blank. After incubation the p55-Ig plate was washed three times with 0.05% Tween-20 in PBS.
All incubations were for 1 hour at 37° C. and after each incubation the plate was washed three times with 0.05% Tween-20 in PBS. Fifty microliters of alkaline phosphatase substrate solution (alkaline buffer (Sigma, St. Louis, Mo.) diluted 1:500 in deionized water plus one 5 mg tablet of p-nitrophenyl phosphate (Sigma, St. Louis, Mo.) per 5 ml of diluted buffer) was added to all wells and incubation continued for 20 minutes at room temperature. Color development was stopped by adding to all wells 50 μl of 3N sodium hydroxide. The optical density (OD) at 405 nm was measured on a microtiter plate reader (Molecular Devices Vmax plate reader), with the plate blank wells subtracted as background. The activity of each peptide was then expressed as the percent inhibition of TNFα capture by the p55-Ig plate, relative to the amount of TNFα captured in wells containing only assay buffer (negative control), as follows:
The inhibition of binding of TNFα to p55TNFr-IgG chimeric construct was performed as described above using several embodiments of the invention. The peptides were tested to determine the concentration necessary to inhibit TNFα by 50% (IC50) relative to TNFα activity in the absence of the peptide.

T1 sequence (P01375 77-233 limits assumed): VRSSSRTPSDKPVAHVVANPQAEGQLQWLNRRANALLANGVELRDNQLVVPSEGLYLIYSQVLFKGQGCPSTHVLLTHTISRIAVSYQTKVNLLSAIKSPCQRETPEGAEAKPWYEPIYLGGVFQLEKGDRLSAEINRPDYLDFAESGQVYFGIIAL

| Substance | IC50 |
| --- | --- |
| MVYPGLQEPWLHSMY-NH2 | 850 µM |
| PGLQEPWLHSMYHGA-NH2 | 600 µM |
| QEPWLHSMYHGAAFQ-NH2 | 310 µM |
| WLHSMYHGAAFQLTQ-NH2 | 480 µM |
| YLAHEVQLFSSQYPF-NH2 | 370 µM |
